Assay results as given in US20050112251A1, “Preservation of liquids” (priority 2002, published 2005).

Columns and labels:
[1] = system: Aspergillus versicolor 245.62; experiment: Natamycin MIC, agar diffusion method; format: cell-based
Experimental: (§1) The minimal inhibition concentration (MIC) of these fungi or the minimal effective amount of the antifungal compound was determined using the agar diffusion method, which is well known in the art. Fungus spores were grown on agar plates containing different concentrations of natamycin. The concentration of natamycin on which no visible growth could be observed was considered as the minimal inhibition concentration for that particular fungus strain.

[2] = system: Byssochlamys nivea 424.300; experiment: Natamycin MIC, agar diffusion method; format: cell-based; conditions: Paecilomyces niveus, agar plates, no visible growth
Experimental: as §1

[3] = system: Cladosporium tenuissimum 117.79; experiment: Natamycin MIC, agar diffusion method; format: cell-based; conditions: isolated from fruit
Experimental: as §1

[4] = system: Mucor circinelloides 366.70; experiment: Natamycin MIC, agar diffusion method; format: cell-based; conditions: isolated from strawberries
Experimental: as §1

[5] = system: Peacilomyces variotii 10274; experiment: Natamycin MIC, agar diffusion method; format: cell-based
Experimental: as §1

[6] = system: Stemphiliomma valparadisiacum 510.83; experiment: Natamycin MIC, agar diffusion method; format: cell-based; conditions: isolated from apple juice
Experimental: as §1

[7] = system: Talaromyces macrosporus 130.89; experiment: Natamycin MIC, agar diffusion method; format: cell-based; conditions: isolated from pineapple juice
Experimental: as §1

[8] = system: Zygosporium mycophilum 396.49; experiment: Natamycin MIC, agar diffusion method; format: cell-based; conditions: isolated from apple pulp
Experimental: as §1

[9] = system: Zygosaccharomyces bailii CBS 1097; experiment: Time to spoilage of inoculated apple juice (visible growth, turbidity); format: cell-based; conditions: room temperature
Experimental: (§2) All experiments were done with pure apple juice. The chosen concentrations of natamycin were sub-optimal (=below MIC).
(§3) All experiments were executed in duplo. • a. The effect of natamycin against the spore forming yeast Zygosaccharomyces bailii CBS 1097 was examined. Apple juice was inoculated with 10^4 Colony Forming Units (CFU)/ml of apple juice. Natamycin was added at a concentration of 1 ppm. • b. The effect of natamycin was tested against Penicillium italicum ATCC 36041. A spore suspension was prepared using well-known methods. The freshly prepared spore suspension was added to apple juice to a final concentration of 104 spores/ml of apple juice. Natamycin was added at a concentration of 5 ppm.
(§4) The samples were incubated at room temperature until fungal growth was visually observed (turbidity of the juice).
(§5) The pulsed electric fields treatments were applied according to well-known procedures for PEF-treatments of liquids. The apple juice to be treated was pumped through the PEF-treatment chamber with a flow rate of 60 litres per hour. The treatment temperature also called juice temperature before the PEF-treatment chamber was 17° C. The value of the electric field strength and the pulse length kept constant were 35 kV/cm and 2-μs, respectively. Three samples points were validated by variation of the pulse frequency, from 8.6 Hz (treatment A) to 5.7 Hz (treatment B) and 2.9 Hz (treatment C). With the above-mentioned parameters, the apple juice received 12, 8 or 4 pulses; those correspond to an energy density of 71, 37 and 12.5 J/ml of juice, respectively.
The chosen inoculation levels, natamycin concentrations and PEF treatments were as described in the examples 2 and 3.
(§6) All samples were incubated at room temperature until fungal growth was visually observed (turbidity of the juice).
Zygosaccharomyces bailii was inoculated in apple juice as described in example 2. Sorbate was added at a concentration of 800 ppm.
The PEF-treatment was used as described in the example 3. […] (treatment B).
The samples were incubated at room temperature.

[10] = system: Penicillium italicum ATCC 36041; experiment: as above; format: cell-based; conditions: room temperature
Experimental: as §2, §3, §4, §5
The chosen inoculation levels, natamycin concentrations and PEF treatments were as described in the examples 2 and 3. The natamycin can be added before or after the PEF treatment.
as §6

[11] = system: Talaromyces macrosporus CBS 130.89 spores; experiment: Time to visible growth of heat-resistant fungus spores in apple juice; format: cell-based; conditions: 104 spores/ml apple juice, incubation 25° C.
Experimental: This example describes the activity of natamycin against spores of a heat resistant fungal species, which is well known for causing spoilage problems in food industry. All experiments were executed on Talaromyces macrosporus CBS 130.89 spores suspended in pure apple juice. The chosen concentration of natamycin was sub-optimal. […] All experiment were executed in duplo.
Apple juice was inoculated with 104 spores/ml of apple juice. Natamycin was added at a concentration of 2.5 ppm. The spores suspended in the apple juice were submitted to a heat treatment at 80° C. for 5 minutes in order to stimulate their germination.
The samples were incubated at room temperature until fungal growth was visually observed (turbidity of the juice). Growth was observed after 4 days of incubation at 25° C.
This example describes the effect of a Pulsed Electric Field treatment against heat-resistant spores of Talaromyces macrosporus CBS 130.89. The pulsed electric fields treatments were applied as describe in the example 3. One sample point was validated for a frequency of 8.6 Hz (treatment A).
The chosen inoculation levels, natamycin concentrations and PEF treatments were as described in the examples 8 and 9. The natamycin can be added before or after the PEF treatment.
All samples were incubated at room temperature until fungal growth was visually observed (turbidity of the juice). […]

[12] = Stability of antifungal agent in apple juice during PEF treatment (HPLC); format: physicochemical; conditions: for inactivation of the antifungal agent by the PEF treatment: general statement in the description
Experimental: as §5
This example illustrates the resistance of natamycin to PEF treatments. Natamycin was added to apple juice at a concentration of 5 ppm and submitted to pulsed electric field treatments as described in example 3. The natamycin content after the PEF-treatments was determined by HPLC.

[13] = system: fungal spores which survived the PEF treatment; experiment: Inhibition of outgrowth of fungal spores, summary of agar diffusion MIC; format: cell-based; conditions: summary of Table 1
Experimental: as §1

most food born fungi = conditions: cited from earlier work
[14] = cited from earlier work
[15] = natamycin 5 ppm + PEF-treatment C (2.9 Hz, 12.5 J/ml)

Question: What does the source list for `C[C@@H]1C/C=C/C=C/C=C/C=C/[C@H](O[C@@H]2O[C@H](C)[C@@H](O)[C@H](N)[C@@H]2O)C[C@@H]2O[C@](O)(C[C@@H](O)C[C@H]3O[C@@H]3/C=C/C(=O)O1)C[C@H](O)[C@H]2C(=O)O` [natamycin]?
Answer: MIC [1]: < 2.5 µg/mL; MIC [2]: < 2.5 µg/mL; MIC [3]: < 2.5 µg/mL; MIC [4]: < 2.5 µg/mL; MIC [5]: < 2.5 µg/mL; MIC [6]: < 5 µg/mL; MIC [7]: < 2.5 µg/mL; MIC [8]: < 2.5 µg/mL; Time to spoilage, natamycin added before PEF-treatment ([9]; natamycin 1 ppm + PEF-treatment A (8.6 Hz, 71 J/ml)): >30 days; Time to spoilage, natamycin added after PEF-treatment ([9]; natamycin 1 ppm + PEF-treatment B (5.7 Hz, 37 J/ml)): >30 days; Time to spoilage ([9]; natamycin 1.0 ppm alone, 10^4 CFU/ml): 2 days; Time to spoilage, natamycin added after PEF-treatment [10, 15]: >30 days; Time to spoilage, natamycin added before PEF-treatment [10, 15]: >30 days; Time to spoilage ([10]; natamycin 5.0 ppm alone, 104 spores/ml): 4 days; Time until growth observed ([11]; natamycin 2.5 ppm + PEF-treatment A): 9 days; Time until growth observed ([11]; natamycin 2.5 ppm alone, heat activation 80° C. 5 minutes): 4 days; natamycin content after the PEF-treatments (HPLC) ([12]; 5 ppm in apple juice, PEF treatments as in example 3): None of the analyzed samples showed a decrease; inactivation of the antifungal agent by the PEF treatment [12]: not inactivated; concentration that inhibits the outgrowth of fungal spores [13]: < 5 ppm; MIC (Minimal Inhibition Concentration) (most food born fungi): less than 10 ppm; solubility in water [14]: 30 to 50 ppm

Question: With `CC=CC=CC(=O)O` [sorbate] as the molecule, how does the “Time without observed fungal growth” value ([9]; sorbate 800 ppm + PEF-treatment B) read?
Answer: Its value is “at least 30 days”.

Question: What about the “Time until fungal growth visually observed” value ([9]; sorbate 800 ppm alone) of the same molecule?
Answer: The value was 6 days.

Question: What about the “inactivation of the antifungal agent by the PEF treatment” value [12] of the same molecule?
Answer: The value was “not inactivated”.
